Where two headings read alike, the source gives them in different places.

Format in all cases: cell-based
Experiment [1] concerns liver cancer cell line T2 HCC. The experiment is described as follows: Minimal effective concentration that elicits polyploidy, T2 HCC. The settings on record: Mus musculus, read-out: MECP: Minimal effective concentration that elicits polyploidy.
For experiment [2], the system named is gastric cancer cell line NCI-N87. The experiment is described as follows: Minimal effective concentration that elicits polyploidy, NCI-N87. The settings on record: Homo sapiens, read-out: MECP: Minimal effective concentration that elicits polyploidy.
Experiment [3] deals with lung cancer cell line A549. The experiment is described as follows: MTT assay of cellular proliferation, A549. The settings on record: Homo sapiens, read-out: EC50: Concentration that inhibits 50% of proliferation. Here is the method: (§1) Six lung cancer cell lines (NCI-H23, NCI-H460, NCI-H596, NCI-H2170, Calu-6 and A549), two colon cancer cell lines (HCT116 and SW460), one breast cancer cell line MDA-MB-231, one gastric cancer cell line NCI-N87, one prostate cancer cell line DU145, one cervical cancer cell line Hela, and one glioblastoma cell line T98G were obtained from ATCC. The T2 HCC cell line was derived from a mouse liver cancer model initiated by a transgene of MYC (Reference). All cell lines were cultured in DMEM (Gibco, Cleveland, TN, USA) supplemented with 5% fetal bovine serum (Gibco), penicillin (100 U/mL)-streptomycin (100 μg/mL) (Gibco, Cat. No. 15140-122), 2 mM L-glutamine (Gibco, 200 mM solution, Cat. No. 25030081), and 1 mM sodium pyruvate (Gibco, 100 mM solution, Cat. No. 11360070) at 37° C. in a humidified incubator that was maintained at 5% CO2.
(§2) The MTT assay measures cellular metabolic activity as a proxy for cell viability and involves the conversion of the water-soluble yellow dye MTT [3-(4,5-dimethylthiazol-2-yl)-2,5-diphenyltetrazolium bromide] into an insoluble purple formazan by the action of mitochondrial reductase. Formazan is then solubilized and its concentration is determined by measuring the optical density (OD) value at a wavelength of 570 nm. The value is in proportional to the number of live cells with excellent linearity up to ˜10^6 cells per well. The MTT assay was used to determine the EC50 value, the concentration of a compound that leads to 50% inhibition of cellular proliferation. Briefly, cells were split when growing to the mid-Log phase. Cells in 100 μL of culture medium were seeded into each well of 96-well microplates and cultivated for 15˜24 hours to reach a confluence of 20˜30% and were then exposed to drugs at concentrations ranging from 1 nM to 10 μM. At the endpoint, 20 μL of a MTT stock solution in DMSO (5 mg/mL) was added to each well that contains […] of DMEM. The microplates were left in the cell culture incubator for 3˜4 h before subjected to solubilization and determination of formazan at A570 in a microplate reader (BioTek ELX808iu). […] Therefore, these compounds might hold a broad utility in the treatment of a large variety of human malignancies.
A general note: Tetrazolium assays rely on reduction of a dye to a coloured formazan, in cell work by metabolically active cells.

For experiment [4], the system named is breast cancer cell line MDA-MB-231. The experiment is described as follows: Minimal effective concentration that elicits polyploidy, MDA-MB-231. The settings on record: Homo sapiens, read-out: MECP: Minimal effective concentration that elicits polyploidy.
Experiment [5] relates to cervical cancer cell line Hela. The experiment is described as follows: MTT assay of cellular proliferation, Hela. The settings on record: Homo sapiens, read-out: EC50: Concentration that inhibits 50% of proliferation. Here is the method:
as §1, §2

Experiment [6] has as its system colon cancer cell line HCT116. The experiment can be described thus: MTT assay of cellular proliferation, HCT116. The settings on record: Homo sapiens, HCT-116, read-out: EC50: Concentration that inhibits 50% of proliferation. The protocol: as §1, §2
Experiment [7] concerns lung cancer cell line A549. The experiment is described as follows: Minimal effective concentration that elicits polyploidy, A549. The settings on record: Homo sapiens, read-out: MECP: Minimal effective concentration that elicits polyploidy.
Experiment [8] concerns RPEMYC^H2B-GFP cells. The experiment is described as follows: Mechanism-informed phenotypic screening assay (mitotic arrest, polyploidy; GE IN-Cell Analyzer 2000). The settings on record: 20 nM to 20 μM, 24, 48 or 72 hours, read-out: Min. Effective conc. for polyploidy (≥5%). The protocol:
We have Previously Developed a Mechanism-Informed Phenotypic Screening Assay to identify novel antimitotic agents (Li et al. 2019). Equipped with a prior understanding of the versatile functions of the chromosomal passenger protein (CPP) complex in orchestrating karyokinesis and cytokinesis, the screening assay is to score for phenotypes typically seen when the CPP complex is disabled. Specifically, the parameters for a positive hit are a temporary elevation of mitotic index (MI) at 24 hours of drug treatment and an accumulation of polyploid cells at 48 hours of drug treatment, indicative of mitotic arrest and cytokinetic failure respectively. These parameters exclude compounds that elicit only a prolonged arrest of cells in mitosis, a phenotype typically provoked by spindle toxins. The screening procedure is briefly summarized here. RPEMYC^H2B-GFP cells engineered to express a Histone 2B-EGFP fusion protein were passaged as batches of 96-well plates, 18-24 hours before exposure to the chemical compounds of the present disclosure at concentrations from 20 nM to 20 μM. At 24, 48 or 72 hours after initiation of treatment, cells were analyzed for either an arrest in mitosis or a change in DNA content by GE IN-Cell Analyzer 2000. As set forth in table 2 below, a value of greater than or equal to […] and less than or equal to 1.0 μM is marked e “A”; a value greater than […] and less than or equal to 10.0 μM is marked “B”; a value greater than 10.0 μM and less than or equal to 30.0 μM is marked “C”; and a value greater than 30.0 μM is marked “D.”

Experiment [9] deals with cervical cancer cell line Hela. The experiment is described as follows: Minimal effective concentration that elicits polyploidy, Hela. The settings on record: Homo sapiens, read-out: MECP: Minimal effective concentration that elicits polyploidy.
The subject of experiment [10] is colon cancer cell line SW460. The experiment is described as follows: MTT assay of cellular proliferation, SW460. The settings on record: Homo sapiens, SW480; read-out: EC50: Concentration that inhibits 50% of proliferation. Here is the method: as §1, §2
Experiment [11] concerns liver cancer cell line T2 HCC. The experiment is described as follows: MTT assay of cellular proliferation, T2 HCC. The settings on record: Mus musculus, read-out: EC50: Concentration that inhibits 50% of proliferation. Here is the method: as §1, §2
In experiment [12] the test system is gastric cancer cell line NCI-N87. The experiment is described as follows: MTT assay of cellular proliferation, NCI-N87. The settings on record: Homo sapiens, read-out: EC50: Concentration that inhibits 50% of proliferation. Here is the method: as §1, §2
The test system of another experiment is SW480. The experiment is described as follows: Minimal effective concentration that elicits polyploidy, SW480. The settings on record: Homo sapiens, read-out: MECP: Minimal effective concentration that elicits polyploidy.
The subject of experiment [13] is RPEMYC^H2B-GFP cells. The experiment can be described thus: Mechanism-informed phenotypic screening assay (mitotic arrest, polyploidy; GE IN-Cell Analyzer 2000). The settings on record: 20 nM to 20 μM, 24, 48 or 72 hours, read-out: Mitotic Arrest (≥5%).
Experiment [14] concerns breast cancer cell line MDA-MB-231. The experiment can be described thus: MTT assay of cellular proliferation, MDA-MB-231. The settings on record: Homo sapiens, read-out: EC50: Concentration that inhibits 50% of proliferation. Here is the method: as §1, §2
In experiment [15] the test system is lung cancer cell line NCI-H23. The experiment can be described thus: MTT assay of cellular proliferation, NCI-H23. The settings on record: Homo sapiens, read-out: EC50: Concentration that inhibits 50% of proliferation. The protocol: as §1, §2
Experiment [16] deals with colon cancer cell line HCT116. The experiment can be described thus: Minimal effective concentration that elicits polyploidy, HCT116. The settings on record: Homo sapiens, HCT-116, read-out: MECP: Minimal effective concentration that elicits polyploidy.
Experiment [17] relates to lung cancer cell line NCI-H23. The experiment can be described thus: Minimal effective concentration that elicits polyploidy, NCI-H23. The settings on record: Homo sapiens, read-out: MECP: Minimal effective concentration that elicits polyploidy.

For `COc1cc(Oc2ncccc2-c2ccnc(C)c2)cc(C(F)(F)F)c1` [Compound 40, 2-(3-methoxy-5-(trifluoromethyl)phenoxy)-2′-methyl-3,4′-bipyridine], the minimal effective concentration was 0.001 to 1 µM in experiment [1]; 0.001 to 1 µM in [2]; 0.001 to 1 µM in experiment [4]; 0.001 to 1 µM in [7]; 1 µM with RPEMYC^H2B-GFP cells [8]; 0.001 to 1 µM in experiment [9]. The minimal effective concentration in the experiment with SW480 is 0.001 to 1 µM; in the experiment with RPEMYC^H2B-GFP cells [13], 1 µM; in experiment [16] it was 0.001 to 1 µM; in [17], 0.001 to 1 µM. The EC50 in [3], in experiment [5], in [6], in experiment [10], in [11] and in experiment [12] was 1 to 1000 nM in each case. In addition, the EC50 in experiment [14] and in experiment [15] was 1 to 1000 nM each time.
As for `COC(=O)c1cc(OC)cc(Oc2nccnc2-c2ccncc2)c1` [Compound 17], the minimal effective concentration in [1] was 0.001 to 1 µM; in experiment [2], 0.001 to 1 µM; in experiment [4] it was 0.001 to 1 µM; in experiment [7] it was 0.001 to 1 µM; in the experiment with RPEMYC^H2B-GFP cells [8] it was 1 µM; in [9] it was 0.001 to 1 µM. Besides, the figures for the minimal effective concentration (with RPEMYC^H2B-GFP cells [13]; in experiment [16]; in experiment [17]) were 1 µM, 0.001 to 1 µM and 0.001 to 1 µM, respectively. Also, the EC50 in experiment [3] lay within 10000 to 30000 nM; in experiment [5], 1 to 1000 nM; in [6], 1 to 1000 nM; in experiment [11], 1 to 1000 nM; in experiment [12] it was 1 to 1000 nM; in [14], 1 to 1000 nM. Besides, the EC50 in [15] was in the range of 1 to 1000 nM.
`CNC(=O)c1cc(OC)cc(Oc2ncccc2-c2cccc(F)c2)c1` [Compound 92, 3-((3-(3-fluorophenyl)pyridin-2-yl)oxy)-5-methoxy-N-methylbenzamide]: the minimal effective concentration with RPEMYC^H2B-GFP cells [8] and in the experiment on RPEMYC^H2B-GFP cells [13] was 1 µM throughout.
`CCOCCOc1cc(-c2cccnc2Oc2cc(OC)cc(C(=O)NC)c2)ccn1` [Compound 85, 3-((2′-(2-ethoxyethoxy)-[3,4′-bipyridin]-2-yl)oxy)-5-methoxy-N-methylbenzamide]: the minimal effective concentration in the experiment on RPEMYC^H2B-GFP cells [8] and in the experiment on RPEMYC^H2B-GFP cells [13] was 1 µM each time.
Turning to `COc1cc(OC)cc(Oc2cncc(-c3cccc(F)c3)n2)c1` [Compound 83, 2-(3,5-dimethoxyphenoxy)-6-(3-fluorophenyl)pyrazine], the minimal effective concentration with RPEMYC^H2B-GFP cells [8] and with RPEMYC^H2B-GFP cells [13] was greater than 30 µM throughout.
For `COc1cc(OC)cc(Oc2ncccc2-c2ccnc(SC)n2)c1` [Compound 62, 4-(2-(3,5-dimethoxyphenoxy)pyridin-3-yl)-2-(methylthio)pyrimidine], the minimal effective concentration in the experiment on RPEMYC^H2B-GFP cells [8] and in the experiment with RPEMYC^H2B-GFP cells [13] was 0.001 to 10 µM each time.
Turning to `CNC(=O)c1cc(OC)cc(Oc2ncccc2-c2ccnc(N)n2)c1` [Compound 25, 3-((3-(2-aminopyrimidin-4-yl)pyridin-2-yl)oxy)-5-methoxy-N-methylbenzamide], the minimal effective concentration in the experiment on RPEMYC^H2B-GFP cells [8] and in the experiment with RPEMYC^H2B-GFP cells [13] was 1 µM throughout.
Take `CNC(=O)c1cc(Oc2ncccc2-c2ccnc(C)c2)cc(-c2cnn(C)c2)c1` [Compound 89, N-methyl-3-(1-methyl-1H-pyrazol-4-yl)-5-((2′-methyl-[3,4′-bipyridin]-2-yl)oxy)benzamide]: the minimal effective concentration in the experiment with RPEMYC^H2B-GFP cells [8] and in the experiment on RPEMYC^H2B-GFP cells [13] was 1 µM in each case.
As to `COc1cc(Oc2ncccc2-c2ccncc2)cc(O[C@H]2CCOC2)c1` [Compound 94, (S)-2-(3-methoxy-5-((tetrahydrofuran-3-yl)oxy)phenoxy)-3,4′-bipyridine], the minimal effective concentration with RPEMYC^H2B-GFP cells [8] and in the experiment with RPEMYC^H2B-GFP cells [13] was 1 µM each time.
Regarding `COc1cc(OC)cc(Oc2ncccc2-c2ccncc2N)c1` [Compound 65, 2-(3,5-dimethoxyphenoxy)-[3,4′-bipyridin]-3′-amine], the minimal effective concentration in the experiment on RPEMYC^H2B-GFP cells [8] and with RPEMYC^H2B-GFP cells [13] was 0.001 to 10 µM in each case.
Consider `COc1cc(OC)cc(Oc2ncccc2-c2cccnc2)c1` [Compound 47, 2-(3,5-dimethoxyphenoxy)-3,3′-bipyridine], for which the minimal effective concentration in the experiment on RPEMYC^H2B-GFP cells [8] and in the experiment on RPEMYC^H2B-GFP cells [13] was 1 µM throughout.
For `CNC(=O)c1cc(Oc2ncccc2-c2ccncc2)cc(OC2CCOC2)c1` (stereo not shown) [Compound 101, 3-([3,4′-bipyridin]-2-yloxy)-N-methyl-5-((tetrahydrofuran-3-yl)oxy)benzamide], the minimal effective concentration in the experiment on RPEMYC^H2B-GFP cells [8] and in the experiment on RPEMYC^H2B-GFP cells [13] was 1 µM throughout.
On to `COc1cc(OC)cc(Oc2cncc(-c3cccnc3)n2)c1` [Compound 82, 2-(3,5-dimethoxyphenoxy)-6-(pyridin-3-yl)pyrazine], for which the minimal effective concentration in the experiment on RPEMYC^H2B-GFP cells [8] and in the experiment on RPEMYC^H2B-GFP cells [13] was 0.001 to 10 µM in each case.
Turning to `COc1cc(Oc2ncccc2-c2ccncc2)cc(C(=O)N(C)C)c1` [Compound 5, 3-([3,4′-bipyridin]-2-yloxy)-5-methoxy-N,N-dimethylbenzamide], the minimal effective concentration with RPEMYC^H2B-GFP cells [8] and in the experiment on RPEMYC^H2B-GFP cells [13] was 0.001 to 10 µM throughout.
